Among the data in a melting point compilation (Tetko et al.; mined from patent text by program, amines drawn as free bases though some values may be those of a salt) are melting point values, retold here.

SMILES strings stand for the structures. Some results are limits rather than exact numbers.

As usually defined, the melting point is the temperature, or range, at which the solid turns liquid. Take `CCn1ccc(=O)c2cnc(-c3cccnc3)nc21`: the melting point is 195 to 196 °C.

The compound `C[C@@H](Nc1ncnc2[nH]c(-c3ccc(CN4CCNCC4)cc3)cc12)c1ccccc1` had a melting point of 240 to 242 °C.

In the case of `Nc1ccc(C=Cc2cc(=O)cc(-c3ccccc3)o2)cc1`, the melting point was 192 to 194 °C.

`COC(=O)CCCCCNC(=O)C(CO)NS(=O)(=O)c1ccc(Cl)cc1` (racemic): the melting point lay within 83 to 86 °C.

`Cc1nc(N2CCN(CC3(C#N)C=CC=CC3)C2=O)sc1C(=O)NCc1ccccc1` (centres undefined) showed a melting point of 176 to 178 °C.

`CCCCNc1nc(N2CC3CCC(CC3)C2)nc(N2CC3CCC(CC3)C2)n1` had a melting point of 101 to 103 °C.

For `COc1ccc(C2CNC(=O)C2)cc1OC` (centres undefined), the melting point stood at 120 °C.

Regarding `COc1c(C)c(C)c(OC)c(CBr)c1C`, the melting point was 71 to 72 °C.

`CCOC(=O)CCN1CCN(C2=Nc3ccccc3Oc3ccc(Cl)cc32)CC1` yielded a melting point of 73 to 75 °C.

As for `COc1ccc(Br)cc1C(C)(C)CCl`, the melting point was 82 to 84 °C.

Consider `COCOc1ccc2cc(C3CCN(C)CC3)[nH]c(=O)c2c1`, for which the melting point was 200 to 202 °C.

In the case of `CSc1nc(=O)n(C)cc1F`, the melting point worked out at 154 °C.

The compound `CCOC(=O)c1cnn2c(-c3ccccc3)ccnc12` gave a melting point of 129 to 130 °C.

On to `Cn1c2ccccc2c2c(N)c3c(nc21)C=CC3=O`, for which the melting point was in the range of 279 to 280 °C.

As to `O=C(O)CN(CC(=O)O)C(=O)c1cc(OCCCCCCOc2ccc(-c3ccccc3)cc2)ccc1OCc1ccccc1`, the melting point fell in the range of 98 to 100 °C.

The compound `CN1C(=O)[C@H](NC(=O)CCc2ccc(Cl)cc2Cl)N=C(c2ccccc2N)c2cc(N)ccc21` came in with a melting point of 188 to 189 °C.

With `O=C(Nc1ccc2c(c1)CCC(CCN1CCCC1)=C2)c1ccc(-c2ccc(F)cc2)cc1`, the melting point fell in the range of 187 to 189 °C.

As for `Cc1ccc2c(NCc3ccc(NC(=O)c4ccc(F)cc4)cc3)nc(NC3CCN(Cc4ccccc4)CC3)nc2c1`, the melting point was 135 to 138 °C.

Consider `COc1cc(Cl)c(N=C2NCCN2O)c(Cl)c1`, for which the melting point fell in the range of 199 to 201 °C.

`COc1ccc(N(N)c2ncnc3cc(Cl)ccc23)cc1` registered a melting point of 124 to 127 °C.

`CC(C)(C)OC(=O)N1CCC(Oc2ccc(Cc3cc4cc(C#N)ccc4o3)cc2)CC1` returned a melting point of 144 to 146 °C.

Take `Cn1cc(I)c(=O)n(C)c1=O`: the melting point was 226 to 228 °C.

For the compound `CC(C)(C)C(=O)OCC1OC(OC(=O)C(C)(C)C)C(OC(=O)C(C)(C)C)C(OC(=O)C(C)(C)C)C1OC(=O)C(C)(C)C` (centres undefined), the melting point was 153 to 156 °C.

The compound `Nc1nc(N)nc(-c2cnccn2)n1` had a melting point of more than 250 °C.

In turn, `O=C(O)/C(=N\OCF)c1nsc(NC(c2ccccc2)(c2ccccc2)c2ccccc2)n1` had a melting point of 144 to 146 °C.

On to `O=C1CC(=O)C(C2CCCSC2)CO1` (centres undefined), for which the melting point lay in the range of 91 to 93 °C.

`N#Cc1c(Cl)ccc2[nH]c(Sc3cccc4c(=O)cc[nH]c34)nc12` showed a melting point of 376 °C.

As to `COCc1nc2c(C(F)(F)F)cccc2c(O)c1C(=O)Nc1nccs1`, the melting point was 260 °C.

`O=C(Cc1ccncc1)N1CCC(=C2c3ccc(Cl)cc3CCc3c(On4nnc5ccccc54)ccnc32)CC1`: the melting point fell in the range of 98.6 to 102 °C.

For `N=C(NC(=O)c1ccccc1)Oc1ccccc1`, the melting point amounted to 125 °C.

`O=C1c2cc(Br)ccc2CCC1Cc1cccnc1` (centres undefined) returned a melting point of 63 to 67 °C.

For `CN1C(=O)C(C(=O)Nc2ccc(Cl)c(C(F)(F)F)c2)S(=O)(=O)c2ccc(Cl)cc21` (centres undefined), the melting point fell in the range of 220 to 222 °C.

`COC(=O)NCC(C)(C)c1ccc(NC(=O)c2ccc(OC)c(OC)c2)cc1` yielded a melting point of 67 to 69 °C.

The compound `c1ccc2c(c1)CCOC2` displayed a melting point of 89 to 90 °C.

For the compound `c1coc(-c2n[nH]c3c2Cc2ccccc2-3)c1`, the melting point is 195 to 197 °C.

`CCOC(=O)c1oc(Cl)nc1C`: the melting point lay in the range of 55 to 58 °C.

For the compound `CC12CC(=O)C3C(CCC4CC(O)CCC43C)C1CCC2C(=O)CCO` (centres undefined), the melting point was in the range of 156 to 158 °C.

As to `O=C(Nc1ccc(-n2nc(C(F)(F)F)cc2C(F)(F)F)cc1)c1ccc(F)c(C(F)(F)F)c1`, the melting point was 142 to 144 °C.

`CCN(CC)CCCNC(=O)Cn1ncc(-c2ccccn2)c1-c1ccccc1` displayed a melting point of 82 to 83 °C.

In turn, `CS(=O)c1cccc(S(N)(=O)=O)c1` (centres undefined) displayed a melting point of 217 to 221 °C.

In turn, `CC(C)c1cccc(C(C)C)c1NC(=O)CN1CCN(CCSc2nc3cccc(S(C)(=O)=O)c3o2)CC1` came in with a melting point of 125 to 128 °C.

`O=c1cnc(-c2ccc(F)c(Br)c2)nn1Cc1ccc(Cl)nc1` returned a melting point of 138 to 140 °C.

`CC(C)(C)OC(=O)NCCN1CC2CN(Cc3ccccc3)CC(C1)O2`: the melting point lay in the range of 58 to 60 °C.

For `CCCC(CC)Nc1cc(C(=O)O)ccc1N1C(=O)CCC1(CO)CO` (centres undefined), the melting point was in the range of 232 to 233 °C.

`OC1CCC2(CC1)CCC(CCc1ccoc1)CC2` (centres undefined) displayed a melting point of 66 to 69 °C.

In turn, `Cc1nc2c(OCc3ccccc3)cccn2c(=O)c1CCCl` registered a melting point of 141 °C.

With `O=C(O)COc1ccc2cc(-c3csc(-c4ccccc4)n3)ccc2c1Br`, the melting point was 222 to 230 °C.

`COc1ccc(OC)c(Cc2cc(C)cc(OC)c2C(=O)O)c1`: the melting point lay within 172 to 174 °C.

Compound `Cc1ccc(OCC(CO)NC(C)(C)C)c(-c2ccc(NN)nn2)c1` (centres undefined) registered a melting point of 172 to 178 °C.

The compound `CNS(=O)(=O)c1ccc(-c2cccc(-c3nc(C(C)C)[nH]c3-c3cccc(C)n3)c2)cc1` yielded a melting point of 96 to 100 °C.

`O=C(CCCNC(=O)c1ccc(OC(F)(F)F)cc1)CCCNC(=O)c1ccc(OC(F)(F)F)cc1`: the melting point lay in the range of 151 to 152 °C.

`COc1ccc(C(C)N(C)CCCOc2ccc(S(=O)(=O)c3ncsc3-c3ccccc3)cc2)cc1OC` (centres undefined) returned a melting point of 162 °C.

`Nc1ncnc2c1ncn2[C@@H]1CO[C@H](CO)[C@@H](O)C1` came in with a melting point of 237 to 239 °C.

Regarding `CCC(=NOC)c1cccc(Oc2nc(OC)cc(OC)n2)c1C(=O)OC`, the melting point was in the range of 75 to 77 °C.

For `COc1ccc(C(=O)CCC(=O)O)cc1Cl`, the melting point was 187 to 189 °C.

In turn, `COC(COc1cc(C)cc(O)c1)OC` gave a melting point of 73 to 75 °C.

In turn, `OCCCN1CCN(C2=Nc3ccccc3Nc3ccsc32)CC1` had a melting point of 172 to 173 °C.

`CCCCCNC(=S)CC(=O)O` showed a melting point of 72 to 76 °C.

With `Cc1ccc(C)c(OCCC(O)C(C)(C)C(=O)O)c1` (centres undefined), the melting point was 100 °C.

`Cc1c(C)c2c(c(C)c1N)CC(C)(Cc1ccccc1)O2` (centres undefined) registered a melting point of 68 to 69 °C.

As to `O=C(Nc1cccc(-c2ccnc3c(C(=O)c4cccs4)cnn23)c1)c1ccncc1`, the melting point was in the range of 220 to 222 °C.

`CC(=C1SC(=O)NC1=O)c1ccc(OCCOc2c(-c3ccc(F)c(F)c3)n(C)c3cc(Cl)ccc3c2=O)c(Cl)c1` yielded a melting point of 140 to 142 °C.

As for `Fc1cc(F)c(-c2c(Cl)nc3nccn3c2NCC(F)(F)F)c(F)c1`, the melting point fell in the range of 155 to 157 °C.

In turn, `COc1cc2[nH]c(=O)cc(C(F)(F)F)c2cc1NC(C)=O` yielded a melting point of 280 °C.
